According to PubChem BioAssay AID1996:
In brackets after ≈: the same amount, converted by molar mass.

details: buffer; pH 7.4; 200.0 µM

Question: With `O=C1CC(c2ccccc2)CC(=O)C1=CN1CCCC1` (stereo not given) as the compound, how does the solubility kinetic read?
Answer: > 40.4 µg/mL

Question: Which solubility kinetic does the source give for `COc1ccc(NC(=O)Nc2ccccc2SC)c(OC)c1` here?
Answer: 0.7 µg/mL (≈ 2.2 µM)

Question: Which solubility kinetic does the source give for `Cc1ccc(NC(=O)c2cc(-c3ccccc3)n(CCCN3CCOCC3)c2C)cc1` here?
Answer: 19.9 µg/mL (≈ 47.7 µM)

Question: With `CSc1ncc(C(=O)Nc2ccc(Br)cn2)c(C)n1` as the compound, how does the solubility kinetic read?
Answer: 47 µg/mL (≈ 139 µM)

Question: Which solubility kinetic does the source give for `C=CCN=C1SC(C)(C)C(=O)N1S(=O)(=O)c1ccc(C)cc1` here?
Answer: 45.6 µg/mL (≈ 135 µM)

Question: Which solubility kinetic does the source give for `Cc1ccc2oc(=O)n(Cc3ccccc3)c2c1` here?
Answer: 2.9 µg/mL (≈ 12.1 µM)

Question: For `Cc1cc(C)c(C(=O)N2CCCC(Nc3ccc(F)cc3)C2)o1` (stereo not given), which solubility kinetic is on record?
Answer: > 47.5 µg/mL

Question: Which solubility kinetic does the source give for `O=C(CSc1ccc([N+](=O)[O-])cn1)Nc1ccc2c(c1)OCCO2` here?
Answer: 0.7 µg/mL (≈ 2.02 µM)

Question: For `O=C(NC1CC1)C1CC(=O)N(c2cccc(Cl)c2)C1` (stereo not given), which solubility kinetic is on record?
Answer: > 41.8 µg/mL

Question: For `O=C(Cc1ccc(Br)cc1)N1CCCC1`, which solubility kinetic is on record?
Answer: 37.6 µg/mL (≈ 140 µM)

Question: Which solubility kinetic does the source give for `Cc1cc(NC(=O)c2ccccc2C)no1` here?
Answer: > 32.4 µg/mL

Question: For `Cl.O=C(OCCN1CCOCC1)c1cccc(F)c1`, which solubility kinetic is on record?
Answer: > 43.5 µg/mL

Question: For `Cc1cc(C(=O)Nc2ccc(Br)cc2)c2ccccc2n1`, which solubility kinetic is on record?
Answer: 0.5 µg/mL (≈ 1.47 µM)

Question: Which solubility kinetic does the source give for `Cc1nc2c(C)cccc2c2c1COC2` here?
Answer: 18.4 µg/mL (≈ 92.3 µM)

Question: With `Cc1noc(C)c1C(=O)NCC1COc2ccccc2O1` (stereo not given) as the compound, how does the solubility kinetic read?
Answer: > 43.2 µg/mL

Question: For `COc1ccc2nc(-c3ccccc3)cc(C(=O)N3CCC3)c2c1`, which solubility kinetic is on record?
Answer: > 47.8 µg/mL

Question: Which solubility kinetic does the source give for `Cc1cc(C(=O)N2CCN(c3ccc([N+](=O)[O-])cc3)CC2)co1` here?
Answer: > 47.3 µg/mL

Question: For `O=C(CN1C(=O)NC(c2ccccc2)(c2ccccc2)C1=O)NCc1ccc(F)cc1`, which solubility kinetic is on record?
Answer: 6.4 µg/mL (≈ 15.3 µM)

Question: Which solubility kinetic does the source give for `Cc1ccc(C2CCN(C(=O)Nc3ccc(F)cc3)C2)cc1` (stereo not given) here?
Answer: 1.7 µg/mL (≈ 5.7 µM)

Question: For `COc1c(C)cc(C(=O)C2CCCN(C(=O)c3cc4nc(C)cc(C)n4n3)C2)cc1C` (stereo not given), which solubility kinetic is on record?
Answer: > 63.1 µg/mL

Question: Which solubility kinetic does the source give for `CN(CC(=O)Nc1cccc2ccccc12)C(=O)c1ccc(NC(=O)CC#N)cc1` here?
Answer: > 60.1 µg/mL

Question: With `CN(C)/C=C/C(=O)c1ccc2noc(-c3ccccc3)c2c1` as the compound, how does the solubility kinetic read?
Answer: 15.1 µg/mL (≈ 51.7 µM)

Question: With `CCC(C)(NC=O)C(=O)Nc1c(C)cccc1C` (stereo not given) as the compound, how does the solubility kinetic read?
Answer: > 37.2 µg/mL

Question: With `CN(C)CC/C=C1/c2ccccc2CS(=O)(=O)c2ccccc21` as the compound, how does the solubility kinetic read?
Answer: 47.6 µg/mL (≈ 145 µM)

Question: For `N#Cc1ccc(OCC(O)CS(=O)(=O)c2ccc(F)cc2)cc1` (stereo not given), which solubility kinetic is on record?
Answer: > 50.3 µg/mL

Question: Which solubility kinetic does the source give for `COc1ccc2cc(C(=O)N3CCN(C)CC3)[nH]c2c1` here?
Answer: > 41 µg/mL

Question: With `COc1ccccc1C(=O)NC1CCCc2ccccc21` (stereo not given) as the compound, how does the solubility kinetic read?
Answer: 33.2 µg/mL (≈ 118 µM)

Question: For `COc1cc(OC)cc(C(=O)Nc2cc(C)on2)c1`, which solubility kinetic is on record?
Answer: 9.7 µg/mL (≈ 37 µM)

Question: For `Cc1ccc(NC(=O)c2cnccn2)cc1`, which solubility kinetic is on record?
Answer: > 32 µg/mL

Question: With `Cc1ccc(/C=C/C(=O)OCC(=O)Nc2cccnc2Cl)o1` as the compound, how does the solubility kinetic read?
Answer: 11.8 µg/mL (≈ 36.8 µM)

Question: Which solubility kinetic does the source give for `COC(=O)c1cccc(-n2c(CCC(=O)O)ccc2-c2cccs2)c1` here?
Answer: > 53.3 µg/mL

Question: Which solubility kinetic does the source give for `COc1ccc(C(CNS(=O)(=O)c2cccc(F)c2)N2CCCC2)cc1.Cl` (stereo not given) here?
Answer: > 62.2 µg/mL

Question: Which solubility kinetic does the source give for `Cc1csc(NC(=O)CSc2[nH]c(=O)ncc2C)n1` here?
Answer: > 44.5 µg/mL

Question: With `COc1cc2c(cc1OC)CN(C(=O)c1cccc([N+](=O)[O-])c1)CC2` as the compound, how does the solubility kinetic read?
Answer: 36 µg/mL (≈ 105 µM)

Question: With `COc1ccc(N2CCN(C(=O)Cc3ccc(C)cc3)CC2)cc1` as the compound, how does the solubility kinetic read?
Answer: 43.9 µg/mL (≈ 135 µM)

Question: Which solubility kinetic does the source give for `CCCCN(C)C(=O)c1cc2cc3ccc(OC)cc3nc2o1` here?
Answer: 14.5 µg/mL (≈ 46.4 µM)

Question: For `Cl.OC(CN1CCOCC1)Cn1c2c(c3ccccc31)CCCC2` (stereo not given), which solubility kinetic is on record?
Answer: 51.3 µg/mL

Question: Which solubility kinetic does the source give for `CCOC(=O)C1CCN(C(=O)COC(=O)/C=C/c2cccc(OC)c2OC)CC1` here?
Answer: 60.5 µg/mL (≈ 149 µM)

Question: For `CC(C)(C)n1cnnc1Sc1ncccc1[N+](=O)[O-]`, which solubility kinetic is on record?
Answer: > 41.9 µg/mL

Question: Which solubility kinetic does the source give for `Cl.OC(CN1CCOCC1)c1csc2ccccc12` (stereo not given) here?
Answer: 43.6 µg/mL

Question: Which solubility kinetic does the source give for `O=C1NC(=Nc2ccccc2)S/C1=C\c1cccnc1` here?
Answer: 2 µg/mL (≈ 7.11 µM)

Question: For `Cc1ccc(S(C)(=O)=NC(=O)NC(=O)c2c(F)cccc2Cl)cc1` (stereo not given), which solubility kinetic is on record?
Answer: 41.1 µg/mL (≈ 111 µM)

Question: With `C=CCNC(=O)N1CCc2[nH]c3ccc(F)cc3c2C1` as the compound, how does the solubility kinetic read?
Answer: > 41 µg/mL

Question: With `O=C(CS(=O)(=O)c1ccccc1)Nc1ncc([N+](=O)[O-])s1` as the compound, how does the solubility kinetic read?
Answer: > 49.1 µg/mL

Question: Which solubility kinetic does the source give for `O=Cc1ccc(OCC(=O)NCC2CCCO2)cc1` (stereo not given) here?
Answer: 36.4 µg/mL (≈ 138 µM)

Question: With `COc1cccc(C(=O)c2c(C)c(CCC#N)n3ccccc23)c1` as the compound, how does the solubility kinetic read?
Answer: 43.5 µg/mL (≈ 137 µM)

Question: Which solubility kinetic does the source give for `Cl.O=C(CNCc1cccs1)NC12CC3CC(CC(C3)C1)C2` here?
Answer: 48.1 µg/mL

Question: For `Cc1ccc2oc(/N=C(\N)NC(=O)C(C)(C)C)nc2c1`, which solubility kinetic is on record?
Answer: 1.2 µg/mL (≈ 4.37 µM)

Question: For `CC(C)NC(=O)CN1CCC(c2nc3ccccc3[nH]2)CC1`, which solubility kinetic is on record?
Answer: > 45.1 µg/mL

Question: Which solubility kinetic does the source give for `CCOC(=O)C1=C(COC(=O)/C=C/c2cccc(F)c2)NC(=O)NC1C` (stereo not given) here?
Answer: 4.6 µg/mL (≈ 12.7 µM)

Question: For `O=C(CNS(=O)(=O)c1cccs1)N1CCCCC1`, which solubility kinetic is on record?
Answer: > 43.3 µg/mL

Question: Which solubility kinetic does the source give for `Cc1cc(C(=O)NCc2cc(C(=O)O)co2)co1` here?
Answer: > 37.4 µg/mL

Question: For `COc1ccc(N(CC(=O)N2CCCC2)S(C)(=O)=O)cc1`, which solubility kinetic is on record?
Answer: 34.5 µg/mL (≈ 110 µM)

Question: For `CC(=O)c1cccc(Nc2nc(-c3cccnc3)cs2)c1`, which solubility kinetic is on record?
Answer: 0.9 µg/mL (≈ 3.05 µM)

Question: For `CC(C(=O)NC1CCCCCC1)n1cc([N+](=O)[O-])cn1` (stereo not given), which solubility kinetic is on record?
Answer: > 42 µg/mL

Question: For `CC(c1ccccc1)C(CC(=O)O)C(=O)Nc1ccc(Cl)c(Cl)c1` (stereo not given), which solubility kinetic is on record?
Answer: 46 µg/mL (≈ 126 µM)

Question: For `O=C(COC(=O)c1ccc(O)cc1)Nc1ncc(Cl)cc1Cl`, which solubility kinetic is on record?
Answer: 31.5 µg/mL (≈ 92.3 µM)

Question: Which solubility kinetic does the source give for `Cn1cc(/C=C2\SC(=O)N(c3ccc(O)cc3)C2=O)c2ccccc21` here?
Answer: < 0.4 µg/mL

Question: With `NS(=O)(=O)c1ccc(CCNC(=O)COC(=O)C2COc3ccccc3O2)cc1` (stereo not given) as the compound, how does the solubility kinetic read?
Answer: > 63.1 µg/mL

Question: With `CN(C)CCCN1C(=O)c2cc3ccccc3cc2C1=O` as the compound, how does the solubility kinetic read?
Answer: 27.8 µg/mL (≈ 98.5 µM)

Question: Which solubility kinetic does the source give for `Cn1c(=O)c(C(=O)NCC2CCCO2)c(O)c2ccccc21` (stereo not given) here?
Answer: 15.2 µg/mL (≈ 50.3 µM)

Question: For `CC(OC(=O)c1cnc2ccccc2n1)c1ccccc1Cl` (stereo not given), which solubility kinetic is on record?
Answer: 14.8 µg/mL (≈ 47.3 µM)

Question: For `O=c1c2ccccc2ncn1-c1ccc(Cl)cc1Cl`, which solubility kinetic is on record?
Answer: 33.8 µg/mL (≈ 116 µM)

Question: Which solubility kinetic does the source give for `Nc1ccc(Cl)c(S(=O)(=O)Nc2ccccc2Cl)c1` here?
Answer: > 47.6 µg/mL

Question: Which solubility kinetic does the source give for `Cc1ccc(C)c(NC(=O)CSc2cccc3cccnc23)c1` here?
Answer: 2.2 µg/mL (≈ 6.82 µM)

Question: For `COc1ccc(C(=O)NCC(=O)N2CCCCC2)cc1OC`, which solubility kinetic is on record?
Answer: > 46 µg/mL

Question: Which solubility kinetic does the source give for `CC(=O)Nc1ccc(OS(=O)(=O)c2ccc(Cl)cc2)cc1` here?
Answer: 38.6 µg/mL (≈ 118 µM)

Question: With `NC(=O)c1cc2cc(Cc3ccccc3Cl)ccc2oc1=O` as the compound, how does the solubility kinetic read?
Answer: 1.2 µg/mL (≈ 3.82 µM)

Question: For `CN(C)c1ccc(/C=C/c2nc3ccccc3c(=O)[nH]2)cc1`, which solubility kinetic is on record?
Answer: 0.6 µg/mL (≈ 2.06 µM)

Question: With `COC(=O)/C(=C\c1ccc(O)cc1)c1nc2ccccc2[nH]1` as the compound, how does the solubility kinetic read?
Answer: 39.6 µg/mL (≈ 135 µM)

Question: With `COc1ccccc1NC(=O)C(C)N(C)CCOc1ccccc1` (stereo not given) as the compound, how does the solubility kinetic read?
Answer: 23.1 µg/mL (≈ 70.3 µM)

Question: With `COC(=O)c1ccc(S(=O)(=O)NC(C)(C)C)n1C` as the compound, how does the solubility kinetic read?
Answer: 40.2 µg/mL (≈ 147 µM)

Question: With `O=C(NCCc1cccs1)C(c1ccccc1)c1ccccc1` as the compound, how does the solubility kinetic read?
Answer: 1.5 µg/mL (≈ 4.67 µM)

Question: Which solubility kinetic does the source give for `COc1ccc(C(=O)N2CCN(c3ccccc3OC)CC2)cc1` here?
Answer: > 49 µg/mL

Question: For `COc1ccc(NC(=S)Nc2ccccc2Cl)cn1`, which solubility kinetic is on record?
Answer: 38.8 µg/mL (≈ 132 µM)

Question: With `CC(C)CC(=O)N1CCN(Cc2cccc([N+](=O)[O-])c2)CC1` as the compound, how does the solubility kinetic read?
Answer: 33.2 µg/mL (≈ 109 µM)

Question: With `Nc1cc(N)nc(SCc2cccc(F)c2)n1` as the compound, how does the solubility kinetic read?
Answer: 24.9 µg/mL (≈ 99.5 µM)

Question: With `CC(=O)Nc1cccc(-c2csc(N)n2)c1` as the compound, how does the solubility kinetic read?
Answer: > 35 µg/mL

Question: With `Cc1cccc(C)c1OCC(=O)Nc1ccncc1` as the compound, how does the solubility kinetic read?
Answer: 21.8 µg/mL (≈ 85.1 µM)

Question: Which solubility kinetic does the source give for `CC(C)(C)c1ccc(SCCc2ccncc2)cc1` here?
Answer: 6.5 µg/mL (≈ 23.9 µM)

Question: For `CCCc1nc2cc3c(cc2[nH]1)n(C)c(=O)n3C.Cl`, which solubility kinetic is on record?
Answer: > 42.1 µg/mL

Question: For `COC(=O)Cn1c2nc3ccccc3nc2c2cccc(C)c21`, which solubility kinetic is on record?
Answer: 0.2 µg/mL (≈ 0.655 µM)

Question: For `N#Cc1c(-c2cccc([N+](=O)[O-])c2)nc2n(c1=O)CCS2`, which solubility kinetic is on record?
Answer: > 45 µg/mL

Question: With `Cc1ccc(C)c(S(=O)(=O)NC(C)C(=O)NCc2ccccn2)c1` (stereo not given) as the compound, how does the solubility kinetic read?
Answer: > 52.1 µg/mL

Question: With `Cc1ccc(NC(=S)NC(=O)c2cncc(Br)c2)cc1Cl` as the compound, how does the solubility kinetic read?
Answer: 2.4 µg/mL (≈ 6.24 µM)
